The target in data set [1] is T1, human ProRS (prolyl tRNA synthetase moiety of glutamyl prolyl tRNA synthetase, EPRS) (Homo sapiens, UniProt P07814).
T1 construct: The prolyl tRNA synthetase moiety (ProRS) in the cDNA of glutamyl prolyl tRNA synthetase was subcloned; 6xHis (N, cleaved yes); made in house; host or cells: E. coli BL21 (DE3)
T1 sequence (P07814 1007-1512 limits assumed): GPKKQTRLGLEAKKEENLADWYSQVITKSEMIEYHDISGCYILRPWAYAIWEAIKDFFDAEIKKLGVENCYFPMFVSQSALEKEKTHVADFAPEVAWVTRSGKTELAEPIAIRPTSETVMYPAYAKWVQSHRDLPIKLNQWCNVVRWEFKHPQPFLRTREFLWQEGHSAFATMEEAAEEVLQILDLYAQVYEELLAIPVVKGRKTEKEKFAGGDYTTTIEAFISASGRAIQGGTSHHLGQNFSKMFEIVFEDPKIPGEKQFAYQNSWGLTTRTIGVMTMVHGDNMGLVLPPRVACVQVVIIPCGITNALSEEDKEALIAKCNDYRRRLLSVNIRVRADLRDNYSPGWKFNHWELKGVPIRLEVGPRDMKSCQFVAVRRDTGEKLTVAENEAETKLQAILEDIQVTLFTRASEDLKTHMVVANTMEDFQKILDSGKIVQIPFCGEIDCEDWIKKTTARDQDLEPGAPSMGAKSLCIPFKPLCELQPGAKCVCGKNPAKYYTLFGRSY
Nature of the data set: Assay for inhibitors of prolyl tRNA synthetase activity (ProRS assay, labeled proline incorporation). Format: biochemical. Put shortly: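 Biotinylated N-His-tagged human ProRS (20 nM) from E. coli, with Tris-Cl pH 7.5, 2 mM DTT, 5 mM ATP, MgCl2, bovine tRNA; compounds (10 μM to 0.5 nM) preincubated 15 min on ice. Started with proline (3.96 μM unlabeled, 1.04 μM labeled), 10 min at 37 °C, TCA-precipitated and scintillation-counted; IC50 from 4-parameter fit.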

For the next data set, the system named is Rat hepatocytes. Nature of the data set: GSH trapping assay in rat hepatocytes. To be noted: 30 μM, 24 hr incubation, LC-MS. Format: in vitro ADME. The protocol:
Rat hepatocytes were isolated from male Sprague-Dawley rats (Vivo Biotech Ltd, HYD, India), weighing 230 to 280 g by the two step collagenase perfusion method (seglen, 1976; Berry M N and Friend D S.1969). Rat hepatocytes were cultured in Dulbecco's Modified Eagle's Medium (DMEM, Gibco®, USA) supplemented with 10^−6 M dexamethasone (Gibco®), 5% fetal bovine serum (Gibco®) and cocktail-A mix (CM3000, Gibco®) containing HEPES buffer (PH 7.4), GlutaMAX™, human recombinant insulin, penicillin and streptomycin. Initial cell viability assessed by Trypanblue stain 0.4% (Sigma, UK) and viability more than 80% were considered for culturing. Hepatocytes were seeded in 96 well type-I collagen coated plates (Gibco®) at 4×10^4 cells/well in 100 μL of the culture medium and incubated at 37° C. in 5% CO2 and 95% relative humidity (RH) for 4 hr of cell attachment.
After 4 hr incubation, rat hepatocytes were washed twice with pre-warmed (37° C.) DMEM incubation medium supplemented with 10^−7 M dexamethasone and cell maintenance cocktail-B (CM4000, Gibco®) solution to remove unattached cells. Post washing hepatocytes were treated with test and reference compounds in incubation medium at single concentration (30 μM) in duplicate and incubate further for 24 hr at 37° C. with 5% CO2 and 95% RH. The final concentration of DMSO in medium was 0.5%.
Post 24 hr incubation, hepatocyte samples were quenched with equal volumes of acetonitrile containing 0.1% formic acid followed by vortex mix, sonicate and centrifuge at 12000 rpm at room temperature for 5 min. Supernatant samples were analyzed for GSH adducts on a C18 reverse-phase column (Xbridge™ Shield, C18, 4.6×150 mm, 3.5 μm) with solvent A (10 mM ammonium formate and 0.1% formic acid/water) and solvent B (0.1% formic acid/acetonitrile).
The column was eluted with 5% B for 5 min and then with a linear gradient to 20% B over 10 min and it was maintained up to 15 min, then it was increased linearly to 40% B up to 27 min and then increase to 90% B up to 29 min, and then equilibrate back the column to 5% B up to 33 min at a flow rate of 0.6 ml/min. The column effluent was directed into the ESI source of a LTQ Velos Orbitrap mass spectrometer (Thermo Fisher Scientific, San Jose, Calif.). The ESI conditions were as follows: sheath gas flow rate, 40 arbitrary units; auxiliary gas, 30 arbitrary units; spray voltage, 4.5 kV; capillary temperature, 230° C.; capillary voltage, 30 V; and tube lens offset, 25 V. Data were acquired in positive ion mode using Xcalibur software (Thermo Fisher Scientific) with one full scan followed by two data-dependent scans of the most intense and the second most intense ions. During the data interpretation the characteristic fragments of neutral loss of glycine (75.0320 Da), pyroglutamic acid (129.0426 Da) and loss of neutral moiety GSH (307.0838 Da) and/or a specific fragment of (GSH+H)^+ (m/z 308.0911) were monitored. Finally the fragments ions with m/z e.g. 179.0485, 177.0328 and 162.0219 Da, which were derived from the glutathione moiety were used to report GSH positive results.

For data set [2] the following is noted: in vivo; cited from earlier work.
The conditions of data set [3]: cited from earlier work.
The mark [4] stands for this setting: human ProRS 20 nM, 10 min at 37° C., read-out: EPRS IC50.

Read-outs that look alike come from different tables or passages of the source.

The text below walks through data of US20210163443A1, “Febrifugine Derivatives” (BRISTOL-MYERS SQUIBB COMPANY, priority 2019, published 2021).

Broadly, the IC50 is the midpoint of a concentration-inhibition curve.

With `Cc1cc(Cl)cc2c(=O)n(C[C@@H](O)C[C@H]3NCCC[C@@H]3O)cnc12.Cl` [Example 30, 6-Chloro-3-{(S)-2-hydroxy-3-[(2R,3S)-3-hydroxypiperidin-2-yl]propyl}-8-methylquinazolin-4(3H)-one hydrochloride], the IC50 in data set [1] (setting [4]) was 0.019 µM. Further, in the data set on Rat hepatocytes, the GSH adduct formation result is “Negative”.

In data set [1], `Cc1cc2ncn(C[C@@H](O)C[C@H]3NCCC[C@@H]3O)c(=O)c2cc1Cl.Cl` [Example 31, 6-Chloro-3-{(S)-2-hydroxy-3-[(2R,3S)-3-hydroxypiperidin-2-yl]propyl}-7-methylquinazolin-4(3H)-one hydrochloride] had an IC50 of 0.017 µM. Moreover, the GSH adduct formation entry with Rat hepatocytes is “Negative (detected by mass only)”.

`Cc1cc2ncn(C[C@@H](O)C[C@H]3NCCC[C@@H]3O)c(=O)c2cc1F.Cl` [Example 32, 6-Fluoro-3-{(S)-2-hydroxy-3-[(2R,3S)-3-hydroxypiperidin-2-yl]propyl}-7-methylquinazolin-4(3H)-one hydrochloride]: the IC50 in data set [1] (setting [4]) is 0.055 µM. In addition, the GSH adduct formation result with Rat hepatocytes is “Negative”.

In the case of `COc1cc2ncn(C[C@@H](O)C[C@H]3NCCC[C@@H]3O)c(=O)c2cc1Cl.Cl` [Example 33, 6-Chloro-3-{(S)-2-hydroxy-3-[(2R,3S)-3-hydroxypiperidin-2-yl]propyl}-7-methoxyquinazolin-4(3H)-one hydrochloride], in data set [1] (setting [4]), the IC50 is 0.116 µM. In the data set with Rat hepatocytes, the GSH adduct formation result is “Negative”.

Take `Cl.O=c1c2c(F)cccc2ncn1C[C@@H](O)C[C@H]1NCCC[C@@H]1O` [Example 40, 5-Fluoro-3-{(S)-2-hydroxy-3-[(2R,3S)-3-hydroxypiperidin-2-yl]propyl}quinazolin-4(3H)-one hydrochloride]: the IC50 in data set [1] (setting [4]) turned out to be 0.302 µM. For the same molecule, the GSH adduct formation entry in the data set with Rat hepatocytes is listed as “Negative”.

On to `CCc1cc(Br)cc2c(=O)n(C[C@@H](O)C[C@H]3NCCC[C@@H]3O)cnc12.Cl` [Example 48, 6-Bromo-8-ethyl-3-{(S)-2-hydroxy-3-[(2R,3S)-3-hydroxypiperidin-2-yl]propyl}quinazolin-4(3H)-one hydrochloride], for which the IC50 in data set [1] (setting [4]) came to 0.083 µM. For the same molecule, the GSH adduct formation result in the data set on Rat hepatocytes is “Negative”.

As for `O=C(CC1NCCCC1O)Cn1cnc2cc(Br)c(Cl)cc2c1=O` (centres unmarked) [Halofuginone, 7-bromo-6-chloro-3-[3-(3-hydroxy-2-piperidinyl)-2-oxopropyl]-4(3H)-quinazolinone], the anti-fibrotic properties entry in data set [2] is reported as “anti-fibrotic properties in vivo”. For the same molecule, in data set [3], the toxicity in humans entry was “nausea, vomiting, and fatigue, and possibly bleeding complications”.
